Assay results reported in patent US20230069886A1, “AROMATIC SULPHONAMIDES DERIVATIVES THAT INHIBITS PDI A3, THEIR SYNTHESIS AND USE” (Uniwersytet Jagiellonski, priority 2020, published 2023).

Legend:
HT-1080 = test: MTT antiproliferative assay, 48 h, HT-1080; type: cell-based, human; conditions: 48-hour exposition, read-out: Cytotoxicity, IC50, μM HT-1080
Protocol: (§1) Anticancer activity of compounds of invention, PDI A3-inhibitors has been tested in vitro in classical antiproliferative assay in various cancer cells lines. Monolayer tumor cell lines MDA-MB-231 (human mammary breast adenocarcinoma), MCF-7 (human breast adenocarcinoma, estrogen-positive), HT-1080 (human fibrosarcoma) and Caco-2 (human colon adenocarcinoma) were cultured in standard medium DMEM (Dulbecco's modified Eagle's medium) (“Sigma”) supplemented with 10% foetal bovine serum (“Sigma”). About 2000-4000 cells per well (depending on line nature) were placed in 96-well plates and after 24 h compounds were added to the wells. Untreated cells were used as a control. The plates were incubated for 48 h, 37° C., 5% CO2. The number of surviving cells was determined using 3-(4,5-dimethylthiazol-2-yl)-2,5-diphenyltetrazolinium bromide (MTT). MTT-test: after incubating culture medium was removed and 200 μL fresh medium with 20 μL MTT (2 mg/mL in HBSS) was added in each well of the plate. After incubation (3 hr., 37° C., 5% CO2), the medium with MTT was removed and 200 μL DMSO were added at once to each sample. The samples were tested at 540 nm on Thermo Scientific Multiskan EX microplate photometer. The half-maximal inhibitory concentration (IC50) of each compound was calculated using Graph Pad Prism® 3.0.

PDI A3 = target: T1, PDI A3 (Homo sapiens, UniProt P30101); test: PDI A3 inhibition, insulin turbidimetric assay; type: biochemical; conditions: 10 ug/ml PDI A3, incubated 60 min at 37° C., turbidity at 650 nm; read-out: Inhibition of PDI A3 (EC 50)
T1 construct: purchased Mybiosource; host or cells: E. coli
T1 sequence (P30101 25-505): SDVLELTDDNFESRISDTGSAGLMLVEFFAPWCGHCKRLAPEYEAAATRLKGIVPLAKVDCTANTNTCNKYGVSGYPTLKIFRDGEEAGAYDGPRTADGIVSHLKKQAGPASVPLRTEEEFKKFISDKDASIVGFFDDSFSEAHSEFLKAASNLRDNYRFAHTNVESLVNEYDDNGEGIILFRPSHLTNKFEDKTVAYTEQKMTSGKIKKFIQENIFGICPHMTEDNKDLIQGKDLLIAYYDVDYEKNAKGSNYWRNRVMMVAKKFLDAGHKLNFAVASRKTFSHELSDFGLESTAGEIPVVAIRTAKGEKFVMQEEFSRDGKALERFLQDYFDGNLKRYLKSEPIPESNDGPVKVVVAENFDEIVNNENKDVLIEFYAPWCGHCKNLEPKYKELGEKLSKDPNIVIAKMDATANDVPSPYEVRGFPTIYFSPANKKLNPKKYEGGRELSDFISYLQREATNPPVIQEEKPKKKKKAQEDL
Protocol: The inhibitory effects compounds of invention on activity of PDIA3 was assess based on the insulin turbidimetric assay. Enzymatic activity of PDIA3 was confirmed by measuring the turbidity increase at 650 nm due to insulin reduction. The assay mixture was prepared by addition 10 ug/ml PDI A3 (E. coli recombinant protein; Mybiosource), […] phosphate buffer (pH7.6), 1 mM EDTA, 0.087 mM DTT and with or without tested compound and was incubated for 60 min, at 37° C. Reaction was started by addition of insulin and DTT. Final concentration of insulin and DTT in assay mixture were 0.15 mMv and 0.174 mMv, respectively. Turbidity was detected at 650 nm against reference samples without PDJs. The measurements were performed at 650 nm using 120-s recordings.

CaCo-2 = test: MTT antiproliferative assay, 48 h, Caco-2; type: cell-based, human; conditions: 48-hour exposition, read-out: Cytotoxicity, IC50, μM CaCo-2
Protocol: as §1

MDA-MB-231 = test: MTT antiproliferative assay, 48 h, MDA-MB-231; type: cell-based, human; conditions: 48-hour exposition, read-out: Cytotoxicity, IC50, μM MDA-MB-231
Protocol: as §1

MCF-7 = test: MTT antiproliferative assay, 48 h, MCF-7; type: cell-based, human; conditions: 48-hour exposition, read-out: Cytotoxicity, IC50, μM MCF-7
Protocol: as §1

## Methyl 1-(4-propylphenyl)sulfonylaziridine-2-carboxylate [Compound C-3304]
HT-1080
  IC50: 17 ± 3 µM
PDI A3
  EC50: 190 µM
CaCo-2
  IC50: 10 ± 1 µM
MDA-MB-231
  IC50: 13 ± 1 µM
MCF-7
  IC50: 49 ± 1 µM
